This note sets out measurements from US10016519B2, “18F-tagged inhibitors of prostate specific membrane antigen (PSMA), their use as imaging agents and pharmaceutical agents for the treatment of prostate cancer” (DEUTSCHES KREBSFORSCHUNGSZENTRUM, priority 2014, dated 2018).

Data set [1] relates to LNCaP cells. Description: Specific cell uptake and internalization. The format is cell-based, human. Particulars: for Internalized fraction: (Internalized activity/total activity)*100, LNCaP cells; for Cell surface / Internalised: LNCaP cells, 30 nM 18F-labeled compound, 45 min, 37° C., specific (blocking with 500 μM PMPA), mean±SD n=3. The procedure: FIG. 8: Internalization of compounds PSMA1001/1002/1003. All compounds were labeled with ^18F, and their specific cell surface binding and internalization properties on LNCaP cells were investigated. Specific cell uptake was determined by blocking with 500 μM-PMPA. Values are expressed as % of applied radioactivity bound to 10^5 cells. Data are expressed as mean±SD (n=3).
(§1) For binding studies and in vivo experiments LNCaP cells (metastatic lesion of human prostatic adenocarcinoma, ATCC CRL-1740) were cultured in RPMI medium supplemented with 10% fetal calf serum and Glutamax (PAA, Austria). During cell culture, cells were grown at 37° C. in an incubator with humidified air, equilibrated with 5% CO2. The cells were harvested using trypsin-ethylenediaminetetraacetic acid (trypsin-EDTA; 0.25% trypsin, 0.02% EDTA, all from PAA, Austria) and washed with PBS.
To determine the specific cell uptake and internalization, 10^5 cells were seeded in poly-L-lysine coated 24-well cell culture plates 24 h before incubation. After washing, the cells were incubated with 30 nM of the radiolabeled compounds for 45 min at 37° C. Specific cellular uptake was determined by competitive blocking with 2-(phosphonomethyl)pentanedioic acid (500 μM final concentration, PMPA, Axxora, Loerrach, Germany). Cellular uptake was terminated by washing 3 times with 1 mL of ice-cold PBS. Cells were subsequently incubated twice with 0.5 mL glycine-HCl in PBS (50 mM, pH=2.8) for 5 min to remove the surface-bound fraction. The cells were washed with 1 mL of ice-cold PBS and lysed using 0.3 N NaOH (0.5 mL). The surface-bound and the internalized fractions were measured in a gamma counter. The cell uptake was calculated as percent of the initially added radioactivity bound to 10^5 cells [% ID/10^5 cells].

For data set [2], the system named is mice bearing LNCaP tumor xenografts. Description: Dynamic microPET imaging. Type of data set: in vivo. The protocol:
FIG. 9: PET imaging of PSMA-1001. Whole-body coronal microPET images of an athymic male nude mice bearing LNCaP tumor xenografts. The tumor-targeting efficacy and pharmacokinetic properties of ^18F-PSMA-1001 were evaluated by dynamic microPET scans. Approximately 15 MBq/mouse were injected. […] The values are expressed as mean SUV (standardized uptake values).
Whole-body coronal microPET images of an athymic male nude mice bearing LNCaP tumor xenografts. […] Approximately 15 MBq/mouse were injected. […] The values are expressed as mean SUV (standardized uptake values).
(§2) For in vivo experiments, 8 week old BALB/c nu/nu mice were subcutaneously inoculated into the right trunk with 5×10^6 LNCaP- or PC3-cells in 50% Matrigel. When the size of tumor was approximately 1 cm^3, the radiolabeled compound was injected via the tail vein (ca. 30 MBq, 60 pmol for μPET imaging; ca. 1 MBq, 60 pmol for organ distribution).
For the microPET studies, 10-25 MBq of the radiolabeled compounds in a volume of 0.15 mL (˜60 pmol) were injected via a lateral tail vein into mice bearing LNCaP tumor xenografts. The anesthetized animals (2% sevoflurane, Abbott, Wiesbaden, Germany) were placed in prone position into the Inveon small animal PET scanner (Siemens, Knoxville, Tenn., USA) to perform dynamic microPET scans and 20 min-static scans.

The target of data set [3] is T1, PSMA (Homo sapiens, UniProt Q04609).
T1 construct: host or cells: LNCaP
Description: Competitive cell binding assay (binding affinity). Particulars: LNCaP cells, competition against 68Ga-labeled [Glu-urea-lys(Ahx)]2-HBED-CC radioligand, 0-5000 nM analyte. The protocol: as §1
The competitive cell binding assay and internalization experiments were performed as described previously (Eder, M. et al., Bioconj. Chem 2012, 23, 688-697) Briefly, the respective cells (10^5 per well) were incubated with the radioligand (^68Ga-labeled [Glu-urea-lys(Ahx)]2-HBED-CC (Schafer, M. et al., EJNMMI Res. 2012; 2, 23) in the presence of 12 different concentrations of analyte (0-5000 nM, 100 μL/well). After incubation, washing was carried out using a multiscreen vacuum manifold (Millipore, Billerica, Mass.). Cell-bound radioactivity was measured using a gamma counter (Packard Cobra II, GMI, Minnesota, USA). The 50% inhibitory concentration (IC^50) was calculated by fitting the data using a nonlinear regression algorithm (GraphPad Software).
Experiments were performed three times. Reference is made to Table A below.

For data set [4], the system named is BALB/c nu/nu mice bearing LNCaP tumor. Description: Organ distribution. Type of data set: in vivo. Particulars: 1 h after injection, tail vein, 60 pmol, n=3. The protocol: as §2
The F-18 labeled compounds were injected via tail vein (1-2 MBq per mouse; 60 pmol). At 1 h after injection, the animals were sacrificed. Organs of interest were dissected, blotted dry, and weighed. The radioactivity was measured with a gamma counter (Packard Cobra II, GMI, Minnesota, USA) and calculated as % ID/g.

T1 sequence (Q04609 whole entry): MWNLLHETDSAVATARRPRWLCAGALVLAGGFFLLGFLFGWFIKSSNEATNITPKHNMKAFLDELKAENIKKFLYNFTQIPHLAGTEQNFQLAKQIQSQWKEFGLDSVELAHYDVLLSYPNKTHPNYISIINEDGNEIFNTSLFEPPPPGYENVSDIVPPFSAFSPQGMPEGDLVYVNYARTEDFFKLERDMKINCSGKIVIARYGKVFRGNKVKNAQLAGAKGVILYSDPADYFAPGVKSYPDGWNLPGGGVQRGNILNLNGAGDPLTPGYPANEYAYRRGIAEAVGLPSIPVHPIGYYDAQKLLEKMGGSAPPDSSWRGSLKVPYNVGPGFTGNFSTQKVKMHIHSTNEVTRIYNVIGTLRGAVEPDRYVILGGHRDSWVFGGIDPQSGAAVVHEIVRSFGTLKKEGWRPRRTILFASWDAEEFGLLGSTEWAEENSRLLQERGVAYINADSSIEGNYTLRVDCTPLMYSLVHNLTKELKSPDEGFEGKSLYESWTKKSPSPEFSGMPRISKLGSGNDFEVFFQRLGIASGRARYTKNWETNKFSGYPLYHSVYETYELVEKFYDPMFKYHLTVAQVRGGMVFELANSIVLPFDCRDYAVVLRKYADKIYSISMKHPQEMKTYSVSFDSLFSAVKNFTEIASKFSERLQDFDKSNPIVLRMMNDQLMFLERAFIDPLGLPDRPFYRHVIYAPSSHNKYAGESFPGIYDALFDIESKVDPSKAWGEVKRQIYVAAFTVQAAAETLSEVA

In data set [1], `O=C(O)CC[C@H](NC(=O)N[C@@H](CCCCNC(=O)[C@H](Cc1ccc2ccccc2c1)NC(=O)[C@H]1CC[C@H](CNC(=O)c2ccc([18F])nc2)CC1)C(=O)O)C(=O)O` [PSMA-1001, (Glu)-(Urea)-((D)-Lys)-(2-Naphthylalanine)-(4-(Aminomethyl)cyclohexanecarboxylic acid)-FN] showed an Internalized fraction of 26%, a Cell surface of 8.4 ± 1.9 % ID/10^5 cells and an Internalised of 2.9 ± 0.3 % ID/10^5 cells. The “Tumor standardized uptake value (SUVmean,BW)” value in data set [2] (LNCaP tumor xenograft, time not stated) is listed as 0.5. Further, in data set [2] (LNCaP xenograft mice), the “Uptake in the kidneys (microPET)” value is “increasing uptake in the kidneys” and the “Uptake in the liver (microPET)” value was “high uptake in the liver”. In data set [3], this molecule registered an IC50 of 3 nM.
With `O=C(O)CC[C@H](NC(=O)N[C@@H](CCCCNC(=O)[C@H](Cc1ccc2ccccc2c1)NC(=O)c1ccc(CNC(=O)c2ccc([18F])nc2)cc1)C(=O)O)C(=O)O` [PSMA-1003, (Glu)-(Urea)-((D)-Lys)-(2-Naphthylalanine)-(4-(Aminomethyl)benzoic acid)-FN], in data set [4], the “Organ distribution, Blood, Mean” value is reported as 2.02 % ID/g; the “Organ distribution, Brain, Mean” value was found to be 0.07 % ID/g; the “Organ distribution, Heart, Mean” value is given as 0.25 % ID/g; the “Organ distribution, Kidney, Mean” value came out at 32.37 % ID/g. Besides, in data set [4], the “Organ distribution, LNCaP Tumor, Mean” value amounted to 3.4 % ID/g; the “Organ distribution, Liver, Mean” value is given as 3.02 % ID/g; the “Organ distribution, Lung, Mean” value was 0.65 % ID/g; the “Organ distribution, Muscle, Mean” value came to 0.25 % ID/g. In addition, in data set [4], the “Organ distribution, Small intestine, Mean” value was 8.49 % ID/g and the “Organ distribution, Spleen, Mean” value came to 1.96 % ID/g.
Turning to `O=C(O)CCC(NC(=O)NC(CCCCNC(=O)C(Cc1ccc2ccccc2c1)NC(=O)c1ccc(CNC(=O)CO/N=C\C([18F])C(O)C(O)C(O)CO)cc1)C(=O)O)C(=O)O` (stereo not shown) [PSMA-1005, (Glu)-(Urea)-(Lys)-(2Nal)-(Bn)-(Acetyl-FDG-Oxim)], in data set [1], the Internalized fraction was determined as 63%, the Cell surface was determined as 1.1 ± 0.5 % ID/10^5 cells and the Internalised amounted to 0.7 ± 0.4 % ID/10^5 cells. The molecule also showed a 50% inhibitory concentration (IC50) in data set [3] of 7 nM.
In the case of “(Glu)-(Urea)-((D)-Lys)-(2-Naphthylalanine)-(4-(Aminomethyl)benzoic acid)-FN [PSMA-1003]”, in data set [1], the Internalized fraction is 38%, the Cell surface is 11.7 ± 1.2 % ID/10^5 cells and the Internalised worked out at 7.1 ± 0.8 % ID/10^5 cells. Besides, the IC50 in data set [3] is 3 nM.

For orientation: IC50 means the concentration needed to halve the response being measured. A higher IC50 goes with a need for much substance.
